US7524853B2 (Solvay Pharmaceuticals B.V., priority 2003, dated 2009)

How the values were obtained:
Type in all cases: cell-based
[1] = target: T1, 17β-hydroxysteroid dehydrogenase type 2 (17β-HSD type 2) (Homo sapiens, UniProt P37059); test: Inhibition of 17β-HSD type 2 in MCF-7 cells stably expressing the isoenzyme (tritium labeled estradiol conversion, HPLC); conditions: MCF7, MCF-7 cells expressing 17β-HSD type 2, 2 nM tritium labeled estradiol; for inhibition at 1 µM: 1 μM test compound, read-out: % Inhibition HSD2 1 μM; for inhibition at 10 µM: 10 μM test compound, read-out: % Inhibition HSD2 10 μM
T1 construct: expressed in transfected cells; host or cells: MCF-7
T1 sequence (P37059 1-387): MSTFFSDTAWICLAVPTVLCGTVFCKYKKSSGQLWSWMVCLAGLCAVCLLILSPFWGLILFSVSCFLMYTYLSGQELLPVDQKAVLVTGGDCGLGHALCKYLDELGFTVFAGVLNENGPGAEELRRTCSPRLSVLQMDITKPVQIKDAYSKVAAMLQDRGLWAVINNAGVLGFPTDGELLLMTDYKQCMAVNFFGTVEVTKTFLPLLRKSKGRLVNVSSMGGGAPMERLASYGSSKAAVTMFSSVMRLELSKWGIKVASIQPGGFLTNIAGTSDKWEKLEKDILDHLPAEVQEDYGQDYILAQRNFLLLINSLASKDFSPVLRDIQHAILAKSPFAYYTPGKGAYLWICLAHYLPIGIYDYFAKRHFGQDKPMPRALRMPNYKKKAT
In short: (§1)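 Cells: stable MCF-7 transfectants per isoenzyme. Step one, add compound (two concentrations) plus 2 nM labelled substrate to growth medium. Step two, remove medium at a set time and stop with trichloroacetic acid. Step three, quantify conversion by HPLC with flow scintillation.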

[2] = target: T2, 17β-hydroxysteroid dehydrogenase type 3 (17β-HSD type 3) (Homo sapiens, UniProt P37058); test: Inhibition of 17β-HSD type 3 in MCF-7 cells stably expressing the isoenzyme (tritium labeled androstenedione conversion, HPLC); conditions: MCF7, MCF-7 cells expressing 17β-HSD type 3, 2 nM tritium labeled androstenedione; for inhibition at 1 µM: 1 μM test compound, read-out: % Inhibition HSD3 1 μM; for inhibition at 10 µM: 10 μM test compound, read-out: % Inhibition HSD3 10 μM
T2 construct: expressed in transfected cells; host or cells: MCF-7
T2 sequence (P37058 1-310): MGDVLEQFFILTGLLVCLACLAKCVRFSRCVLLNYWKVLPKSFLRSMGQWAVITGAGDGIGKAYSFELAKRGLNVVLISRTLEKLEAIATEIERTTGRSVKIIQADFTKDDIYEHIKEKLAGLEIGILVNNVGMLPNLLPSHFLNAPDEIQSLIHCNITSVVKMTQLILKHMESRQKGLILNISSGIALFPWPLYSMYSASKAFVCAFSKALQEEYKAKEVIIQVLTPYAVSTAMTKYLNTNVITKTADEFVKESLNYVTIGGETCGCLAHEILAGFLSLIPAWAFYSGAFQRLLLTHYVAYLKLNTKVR
In short: as §1

[3] = target: T3, 17β-hydroxysteroid dehydrogenase type 1 (17β-HSD type 1) (Homo sapiens, UniProt P14061); test: Inhibition of 17β-HSD type 1 in MCF-7 cells stably expressing the isoenzyme (tritium labeled estrone conversion, HPLC); conditions: MCF7, MCF-7 cells expressing 17β-HSD type 1, 2 nM tritium labeled estrone; for inhibition at 1 µM: 1 μM test compound, read-out: % Inhibition HSD1 1 μM; for inhibition at 10 µM: 10 μM test compound, read-out: % Inhibition HSD1 10 μM
T3 construct: expressed in transfected cells; host or cells: MCF-7
T3 sequence (P14061 1-328): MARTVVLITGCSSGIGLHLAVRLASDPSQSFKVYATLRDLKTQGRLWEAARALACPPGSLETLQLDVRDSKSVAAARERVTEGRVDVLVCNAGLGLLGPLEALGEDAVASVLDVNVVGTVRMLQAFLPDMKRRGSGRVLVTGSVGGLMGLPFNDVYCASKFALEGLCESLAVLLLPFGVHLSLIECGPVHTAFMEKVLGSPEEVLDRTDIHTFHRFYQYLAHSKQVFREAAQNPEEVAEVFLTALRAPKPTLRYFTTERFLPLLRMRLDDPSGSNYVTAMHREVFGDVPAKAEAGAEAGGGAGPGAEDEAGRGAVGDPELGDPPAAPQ
In short: as §1

Row | inhibition at 1 µM [1] [%] | inhibition at 10 µM [1] [%] | inhibition at 1 µM [2] [%] | inhibition at 10 µM [2] [%] | inhibition at 1 µM [3] [%] | inhibition at 10 µM [3] [%] | SMILES
1 | 13.8 | 5.3 | 3.8 | 16.2 | 15.6 | 25 | CCOC(=O)c1nc2sc3c(c2c(=O)n1-c1ccccc1)CCCC3 [No. 40, 4-Oxo-3-phenyl-3,4,5,6,7,8-hexahydro-benzo[4,5]thieno[2,3-d]pyrimidine-2-carboxylic acid ethyl ester]
2 | 17.9 | 17.7 | 22.5 | 34.5 | 5.7 | 10 | O=c1c2c3c(sc2nc(-c2cc(O)c(O)c(O)c2)n1Cc1ccccc1)CCCC3 [No. 41, 3-Benzyl-2-(3,4,5-trihydroxyphenyl)-5,6,7,8-tetrahydro-3H-benzo[4,5]thieno[2,3-d]pyrimidin-4-one]
3 | -1.9 | -0.5 | 3.2 | 4 | 26.8 | 56 | COc1c(O)cc(-c2nc3sc4c(c3c(=O)n2-c2ccccc2)CCCC4)cc1O [No. 42, 3-Phenyl-2-(3,5-dihydroxy-4-methoxyphenyl)-5,6,7,8-tetrahydro-3H-benzo[4,5]thieno[2,3-d]pyrimidin-4-one]
4 | 18 | 15 | -2.5 | -0.9 | 12 | 23.8 | O=c1c2c3c(sc2nc(-c2cc(O)c(O)c(O)c2)n1-c1ccccc1)CCCC3 [No. 43, 3-Phenyl-2-(3,4,5-trihydroxyphenyl)-5,6,7,8-tetrahydro-3H-benzo[4,5]thieno[2,3-d]pyrimidin-4-one]
5 | 2.2 | 16.3 | -22.5 | 26.3 | 10.5 | 55.6 | Cc1nc2sc3c(c2c(=O)n1-c1ccccc1)CCC(Br)C3=O (stereo not drawn) [No. 44, 7-Bromo-2-methyl-3-phenyl-6,7-dihydro-3H,5H-benzo[4,5]thieno[2,3-d]pyrimidine-4,8-dione]
6 | 3.5 | 6.5 | -2.2 | 4.1 | -7.7 | -18.3 | Cc1nc2sc3c(c2c(=O)n1-c1ccccc1)CCC(Br)(Br)C3=O [No. 45, 7,7-Dibromo-2-methyl-3-phenyl-6,7-dihydro-3H,5H-benzo[4,5]thieno[2,3-d]pyrimidine-4,8-dione]
7 | 44 | 20.9 | 31.4 | 37.1 | 32.1 | 72.2 | COc1cc(-c2nc3sc4c(c3c(=O)n2Cc2ccccc2)CCC(Br)C4=O)cc(OC)c1OC (stereo not drawn) [No. 46, 3-benzyl-7-bromo-2-(3,4,5-trimethoxyphenyl)-6,7-dihydro-3H,5H-benzo[4,5]thieno[2,3-d]pyrimidine-4,8-dione]
8 | 31.9 | 59 | 39.7 | 52.2 | 16.1 | 63.2 | COc1cc(-c2nc3sc4c(c3c(=O)n2Cc2ccccc2)CCC(Br)C4=O)c(Br)c(OC)c1OC (stereo not drawn) [No. 47, 3-benzyl-7-bromo-2-(2-bromo-3,4,5-trimethoxyphenyl)-6,7-dihydro-3H,5H-benzo[4,5]thieno[2,3-d]pyrimidine-4,8-dione]
9 | 0.8 | 25.6 | 33.7 | 23.4 | 27.4 | 36.5 | COc1cc(-c2nc3sc4c(c3c(=O)n2Cc2ccccc2)CCC(Br)(Br)C4=O)c(Br)c(OC)c1OC [No. 48, 3-benzyl-7,7-dibromo-2-(2-bromo-3,4,5-trimethoxyphenyl)-6,7-dihydro-3H,5H-benzo[4,5]thieno[2,3-d]pyrimidine-4,8-dione]
10 | 20.1 | 36.9 | 12.4 | 52.6 | 24.7 | 86.2 | COc1cc(-c2nc3sc4c(O)cccc4c3c(=O)n2Cc2ccccc2)c(Br)c(OC)c1OC [No. 49, 3-Benzyl-2-(2-bromo-3,4,5-trimethoxyphenyl)-8-hydroxy-3H-benzo[4,5]thieno[2,3-d]pyrimidin-4-one]
11 | 32.4 | 39 | 32.9 | 75.8 | 34.4 | 65.8 | COc1cc(-c2nc3sc4c(OC(C)=O)cccc4c3c(=O)n2Cc2ccccc2)c(Br)c(OC)c1OC [No. 50, Acetic acid 3-benzyl-2-(2-bromo-3,4,5-trimethoxyphenyl)-4-oxo-3,4-dihydro-benzo[4,5]thieno[2,3-d]pyrimidin-8-yl ester]
12 | 0.1 | 19.1 | -2.4 | 4.3 | 4.7 | 11.6 | COc1cc(-c2nc3sc4c(O)c(Br)ccc4c3c(=O)n2Cc2ccccc2)c(Br)c(OC)c1OC [No. 52, 3-benzyl-7-bromo-2-(2-bromo-3,4,5-trimethoxyphenyl)-8-hydroxy-3H-benzo[4,5]thieno[2,3-d]pyrimidin-4-one]
13 | 22.4 | 60 | 32.2 | 52.7 | 52.2 | 71 | COc1cc(-c2nc3sc4c(O)cccc4c3c(=O)n2Cc2ccccc2)cc(OC)c1OC [No. 53, 3-Benzyl-8-hydroxy-2-(3,4,5-trimethoxyphenyl)-3H-benzo[4,5]thieno[2,3-d]pyrimidin-4-one]
14 | 17 | 59.8 | 24.6 | 55.2 | 35.4 | 76.7 | COc1cc(-c2nc3sc4c(OC(C)=O)cccc4c3c(=O)n2Cc2ccccc2)cc(OC)c1OC [No. 54, Acetic acid 3-benzyl-2-(3,4,5-trimethoxyphenyl)-4-oxo-3,4-dihydro-benzo[4,5]thieno[2,3-d]pyrimidin-8-yl ester]
15 | 18.8 | 24.5 | 14.7 | 41.9 | 21.3 | 33.2 | O=c1c2c3c(sc2nc(-c2ccccc2)n1Cc1ccccc1)CCCC3 [No. 56, 3-Benzyl-2-phenyl-5,6,7,8-tetrahydro-3H-benzo[4,5]thieno[2,3-d]pyrimidin-4-one]
16 | 17.5 | 28.5 | 19.7 | 57.3 | 23 | 47.3 | O=C1CCCc2c1sc1nc(-c3ccccc3)n(Cc3ccccc3)c(=O)c21 [No. 57, 3-Benzyl-2-phenyl-6,7-dihydro-3H,5H-benzo[4,5]thieno[2,3-d]pyrimidine-4,8-dione]
17 | 22.5 | 33.9 | 16 | 39.4 | 25.5 | 54.9 | O=C1c2sc3nc(-c4ccccc4)n(Cc4ccccc4)c(=O)c3c2CCC1Br (stereo not drawn) [No. 58, 3-Benzyl-7-bromo-2-phenyl-6,7-dihydro-3H,5H-benzo[4,5]thieno[2,3-d]pyrimidine-4,8-dione]
